According to ChEMBL document CHEMBL1221382, “N,O-diacyl-4-benzoyl-N-phenylhydroxylamines as photoinduced DNA cleaving agents” (Bioorg Med Chem Lett, 2010):

Tests used:
Format in all cases: nucleic-acid assay
[1] = test system: Nucleic Acid; experiment: Induction of DNA cleavage activity in Escherichia coli pBR322 assessed as relaxed circular form after 10 mins by gel electrophoresis in presence of UV light; set-up: concentration or dose not given beside the values
[2] = test system: Nucleic Acid; experiment: Induction of DNA cleavage activity in Escherichia coli pBR322 assessed as supercoiled circular form after 10 mins by gel electrophoresis in presence of UV light; set-up: concentration or dose not given beside the values
[3] = test system: Nucleic Acid; experiment: Induction of DNA cleavage activity in Escherichia coli pBR322 assessed as supercoiled circular form after 10 mins by gel electrophoresis in absence of UV light
[4] = test system: Nucleic Acid; experiment: Induction of DNA cleavage activity in Escherichia coli pBR322 assessed as supercoiled circular form after 10 mins by gel electrophoresis in presence of 0.1 M NaN3 solution
[5] = test system: Nucleic Acid; experiment: Induction of DNA cleavage activity in Escherichia coli pBR322 assessed as supercoiled circular form after 10 mins by gel electrophoresis in presence of ascorbic acid
[6] = test system: Nucleic Acid; experiment: Ratio of relaxed circular form of Escherichia coli pBR322 to supercoiled circular form of Escherichia coli pBR322 in presence of 0.1 M NaN3 solution
[7] = test system: Nucleic Acid; experiment: Induction of DNA cleavage activity in Escherichia coli pBR322 assessed as supercoiled circular form after 10 mins by gel electrophoresis in presence of bubbling with argon gas
[8] = test system: Nucleic Acid; experiment: Induction of DNA cleavage activity in Escherichia coli pBR322 assessed as relaxed circular form after 10 mins by gel electrophoresis in presence of 0.1 M NaN3 solution; set-up: scale not given: the % may be the effect or the level left
[9] = test system: Nucleic Acid; experiment: Ratio of relaxed circular form of Escherichia coli pBR322 to supercoiled circular form of Escherichia coli pBR322 in presence of bubbling with argon gas
[10] = test system: Nucleic Acid; experiment: Ratio of relaxed circular form of Escherichia coli pBR322 to supercoiled circular form of Escherichia coli pBR322 in presence of ascorbic acid
[11] = test system: Nucleic Acid; experiment: Induction of DNA cleavage activity in Escherichia coli pBR322 assessed as relaxed circular form after 10 mins by gel electrophoresis in presence of bubbling with argon gas; set-up: scale not given: the % may be the effect or the level left
[12] = test system: Nucleic Acid; experiment: Induction of DNA cleavage activity in Escherichia coli pBR322 assessed as relaxed circular form after 10 mins by gel electrophoresis in presence of ascorbic acid; set-up: scale not given: the % may be the effect or the level left
[13] = test system: Nucleic Acid; experiment: Induction of DNA cleavage activity in Escherichia coli pBR322 assessed as relaxed circular form after 10 mins by gel electrophoresis in absence of UV light; set-up: scale not given: the % may be the effect or the level left
[14] = test system: Nucleic Acid; experiment: Ratio of relaxed circular form of Escherichia coli pBR322 to supercoiled circular form of Escherichia coli pBR322 in absence of UV light

O=C(ON(C(=O)c1ccccc1)c1ccc(C(=O)c2ccccc2)cc1)c1ccc(F)cc1
Activity [1]: 62.9% | Activity [2]: 37.1%

CC(=O)ON(C(=O)c1ccccc1)c1ccc(C(=O)c2ccccc2)cc1
Activity [3]: 83.7% | Activity [4]: 24.1% | Activity [5]: 76.6% | Ratio [6]: 3.18 | Activity [1]: 73.9% | Activity [7]: 26.1% | Activity [8]: 76% | Ratio [9]: 2.79 | Ratio [10]: 0.31 | Activity [11]: 73% | Activity [12]: 23.4% | Activity [13]: 16.3% | Ratio [14]: 0.19 | Activity [2]: 25.6%

O=C(ON(C(=O)c1ccccc1)c1ccc(C(=O)c2ccccc2)cc1)c1ccc([N+](=O)[O-])cc1
Activity [1]: 43.4% | Activity [2]: 56.6%

CC(=O)N(OC(=O)c1ccccc1)c1ccc(C(=O)c2ccccc2)cc1
Activity [1]: 92.2% | Activity [2]: 7.83%

O=C(ON(C(=O)c1ccccc1)c1ccc(C(=O)c2ccccc2)cc1)c1ccccc1
Activity [1]: 86.8% | Activity [2]: 13.2%

O=C(ON(C(=O)c1ccc(F)cc1)c1ccc(C(=O)c2ccccc2)cc1)c1ccccc1
Activity [1]: 40.8% | Activity [2]: 59.2%

COc1ccc(C(=O)N(OC(=O)c2ccccc2)c2ccc(C(=O)c3ccccc3)cc2)cc1OC
Activity [1]: 77.1% | Activity [2]: 22.9%

O=C(ON(C(=O)c1ccc([N+](=O)[O-])cc1)c1ccc(C(=O)c2ccccc2)cc1)c1ccccc1
Activity [1]: 36.3% | Activity [2]: 63.7%

O=C(ON(C(=O)c1ccccc1)c1ccc(C(=O)c2ccccc2)cc1)c1ccc(Cl)cc1
Activity [1]: 35% | Activity [2]: 65%

COc1ccc(C(=O)ON(C(=O)c2ccccc2)c2ccc(C(=O)c3ccccc3)cc2)cc1OC
Activity [1]: 88.8% | Activity [2]: 11.2%
